Measurements reported in patent publication US20140200215A1, “LYSOPHOSPHATIDIC ACID RECEPTOR ANTAGONISTS” (INTERMUNE, INC., priority 2013, published 2014).

Columns and labels:
Assay type in all cases: cell-based
[1] = molecular target: T1, Human LPA1 (Homo sapiens, UniProt Q92633); test: LPA1 calcium flux assay; set-up: the full-length cDNA for human LPA1 is obtained by PCR of the reverse transcription reaction; expressed in transfected cells; details: human LPA1 expressing CHO cells, stimulated with 10 nM LPA; read-out: Ca Flux LPA1 IC50
Experimental: Establishment of a CHO Cell Line Stably Expressing Human LPA1
A 1.1 kb cDNA encoding the human LPA1 receptor is cloned from human lung. Human lung RNA (Clontech Laboratories, Inc. USA) is reverse transcribed using the RETROscript kit (Ambion, Inc.) and the full-length cDNA for human LPA1 is obtained by PCR of the reverse transcription reaction. The nucleotide sequence of the cloned human LPA1 is determined by sequencing and is confirmed to be identical to the published human LPA1 sequence (An et al. Biochem. Biophys. Res. Commun. 231:619 (1997). The cDNA is cloned into the pCDNA5 pcDNA5/FRT expression plasmid and is transfected in CHO cells using lipofectamine 2000 (Invitrogen Corp., USA). Clones stably expressing human LPA1 are selected using hygromycin and identified as cells that show Ca-influx in response to LPA.
LPA1 and LPA3 Calcium Flux Assays
Human LPA1 or LPA3 expressing CHO cells were seeded at 20,000-45,000 cells per well in a 96-well poly-D-lysine coated plate one or two days before the assay. Prior to the assay, the cells were washed once with PBS and then cultured in serum-free media overnight. On the day of the assay, a calcium indicator dye (Calcium 4, Molecular Devices) in assay buffer (HBSS with Ca^2+ and Mg^2+ and containing 20 mM Hepes and 0.3% fatty-acid free human serum albumin) was added to each well and incubation continued for 1 hour at 37° C. 10 μl of test compounds in 2.5% DMSO were added to the cells and incubation continued at room temperature for 30 minutes. Cells were then stimulated by the addition of 10 nM LPA and intracellular Ca^2+ measured using the Flexstation 3 (Molecular Devices). IC50, were determined using Graphpad prism analysis of drug titration curves.

[2] = molecular target: T1, Human LPA1; test: Beta-Arrestin based assay for human LPA1R antagonists (PathHunter); details: CHO cells expressing ProLink tagged human LPA1R; antagonist mode, 0.5 micromolar LPA
Experimental: Beta-Arrestin Based Assays for Human LPA1R Antagonists and Agonists
A CHO cell line stably expressing the ProLink™ tagged human LPA1R was obtained from DiscoverX Inc, Fremont, Calif. In this system, β-Arrestin was fused to an N-terminal deletion mutant of β-galactosidase (termed the enzyme acceptor or EA), the human LPA1R was fused to a smaller (42 amino acids) weakly complementing fragment termed ProLink™. […] Cell handling and assays were performed according to protocols specified in the PathHunter® assays kits (DiscoverX, Fremont, Calif.). Assays were performed in quadruplicate in white 384 well plates. End point luminescence data were plotted and fit to a 4 parameter logistic function to obtain IC50 values. For antagonist assays, an […] concentration of agonist (LPA) equal to 0.5 micromolar was used.

[3] = tested on: primary fibroblasts (including lung, dermal), HFL-1, 3T3 and CHO cells expressing LPA1R; test: LPA1 migration assay (Oris cell migration); details: inhibition of cell migration in response to chemoattractant (LPA, serum)
Excerpt: Migration of primary fibroblasts (including lung, dermal), HFL-1, 3T3 and CHO cells expressing LPA1R were monitored using the Oris™ assay (Platypus Technologies, Madison, Wis.). These cells were dye (Cell Tracker Green™) loaded and serum starved for 12-24 hrs. In response to chemoattractants such as LPA and serum, the cells migrated inward in to the exclusion (detection) zone. After fixing, fluorescent cells in the detection zone were counted using a high content reader. The ability of LPA1 antagonists to inhibit cell migration is quantified by plotting cell number vs. compound concentration and curve fitting the resulting dose-response curve to a 4 parameter logistic function.

T1 sequence (Q92633 whole entry): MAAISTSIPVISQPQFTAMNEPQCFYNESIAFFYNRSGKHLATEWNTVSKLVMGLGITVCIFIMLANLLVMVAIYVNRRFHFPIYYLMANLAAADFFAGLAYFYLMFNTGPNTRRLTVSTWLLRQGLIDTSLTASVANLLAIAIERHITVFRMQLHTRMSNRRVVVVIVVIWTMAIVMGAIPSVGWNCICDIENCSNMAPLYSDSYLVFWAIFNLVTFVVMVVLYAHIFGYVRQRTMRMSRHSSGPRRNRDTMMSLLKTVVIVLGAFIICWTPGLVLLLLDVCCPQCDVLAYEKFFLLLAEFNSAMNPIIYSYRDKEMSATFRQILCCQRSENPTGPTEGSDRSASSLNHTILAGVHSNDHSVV

SMILES | IC50 [1] [nM] | EC50 [2] [nM] | EC50 [3] [nM]
C[C@@H](OC(=O)Nc1c(-c2ccc(-c3ccc(C4(C(=O)O)CC4)cc3)cc2)nc2cccnn12)c1ccccc1 [IT041] | 50 to 500 | > 500 | > 500
C[C@@H](OC(=O)Nc1c(-c2ccc(-c3ccc(C4(C(=O)O)CC4)cc3)cc2)nc2ncccn12)c1ccccc1 [IT043] | 50 to 500 | < 50 | 50 to 500
Cc1nsc(-c2ccc(-c3cc4sc(C5(C(=O)O)CC5)cc4s3)cc2)c1NC(=O)O[C@H](C)c1ccccc1 [IT046] | > 500 | < 50 | 50 to 500
Cc1noc(C#Cc2cc3sc(C4(C(=O)O)CC4)cc3s2)c1NC(=O)O[C@H](C)c1ccccc1Cl [IT047] | 50 to 500 | < 50 | < 50
Cc1noc(C#Cc2cc3sc(C4(C(=O)O)CC4)cc3s2)c1NC(=O)OCc1ccccc1 [IT048] | < 50 | < 50 | 50 to 500
C[C@@H](OC(=O)Nc1c(-c2ccc(-c3cc4sc(C5(C(=O)O)CC5)cc4s3)cc2)nnn1C)c1ccccc1 [IT050] | 50 to 500 | < 50 | 50 to 500
Cc1nnn(-c2ccc(-c3cc4sc(C5(C(=O)O)CC5)cc4s3)cc2)c1NC(=O)O[C@H](C)c1ccccc1 [IT051] | 50 to 500 | 50 to 500 | 50 to 500
C[C@@H](OC(=O)Nc1c(-c2ccc(-c3cc4sc(C5(C(=O)O)CC5)cc4s3)cc2)cnn1C)c1ccccc1 [IT056] | 50 to 500 | < 50 | 50 to 500
C[C@@H](OC(=O)Nc1c(-c2cc(F)c(-c3ccc(C4(C(=O)O)CC4)cc3)cc2F)nn2ncccc12)c1ccccc1 [IT061] | < 50 | < 50 | 50 to 500
C[C@@H](OC(=O)Nc1c(C#Cc2ccc3cc(C4(C(=O)O)CC4)ccc3c2)nnn1C)c1ccccc1 [IT064] | < 50 | < 50 | 50 to 500
C[C@@H](OC(=O)Nc1c(C2CCC(c3ccc(C4(C(=O)O)CC4)cc3)CC2)cnn1C)c1ccccc1 (stereo partly drawn) [IT066] | 50 to 500 | 50 to 500 | > 500
Cc1nnn(-c2cc(F)c(-c3cc4sc(C5(C(=O)O)CC5)cc4s3)cc2F)c1NC(=O)O[C@H](C)c1ccccc1 [IT067] | 50 to 500 | 50 to 500 | > 500
C[C@@H](OC(=O)Nc1c(C#Cc2cc3sc(C4(C(=O)O)CC4)cc3s2)nnn1C)c1ccccc1 [IT069] | < 50 | < 50 | 50 to 500
CCn1ncc(C#Cc2cc3sc(C4(C(=O)O)CC4)cc3s2)c1NC(=O)O[C@H](C)c1ccccc1 [IT070] | < 50 | < 50 | < 50
C[C@@H](OC(=O)Nc1c(-c2cc(F)c(-c3cc4sc(C5(C(=O)O)CC5)cc4s3)cc2F)nnn1C)c1ccccc1 [IT071] | 50 to 500 | < 50 | 50 to 500
C[C@@H](OC(=O)Nc1c(C#Cc2cc3sc(C4(C(=O)O)CC4)cc3s2)nn2ccccc12)c1ccccc1 [IT073] | < 50 | 50 to 500 | 50 to 500
C[C@@H](OC(=O)Nc1c(CCc2cc3sc(C4(C(=O)O)CC4)cc3s2)cnn1C)c1ccccc1 [IT099] | > 500 | 50 to 500 | > 500
